# Measured values as given in patent US8415475B2, “Antibacterial quinoline derivatives” (Janssen Pharmaceutica N.V., priority 2006, dated 2013).
# How the values were obtained:
# [1] = test system: Staphylococcus aureus (ATCC29213); test: In-vitro anti-bacterial microtitre plate assay, IC90, S. aureus; type: cell-based; conditions: 90% inhibitory concentration for bacterial growth, resazurin fluorescence; for IC90 values STA 1 B29213: 24 hours
# Method: (§1) D.3. In-Vitro Method for Testing Compounds for Anti-Bacterial Activity Against Various Non-Mycobacterial Strains The bacteria used in this study were grown overnight in flasks containing 100 ml Mueller-Hinton Broth (Becton Dickinson-cat. no. 275730) in sterile de-ionized water, with shaking, at 37° C. Stocks (0.5 ml/tube) were stored at -70° C. until use. Bacteria titrations were performed in microtiter plates to detect the TCID50, in which the TCID50 represents the dilution that gives rise to bacterial growth in 50% of inoculated cultures. In general, an inoculum level of approximately 100 TCID50 was used for susceptibility testing. Flat-bottom, sterile 96-well plastic microtiter plates were filled with 180 μl of sterile deionized water, supplemented with 0.25% BSA. Subsequently, stock solutions (7.8× final test concentration) of compounds were added in 45 μl volumes in column 2. Serial five-fold dilutions (45 μl in 180 μl) were made directly in the microtiter plates from column 2 to reach column 11. Untreated control samples with (column 1) and without (column 12) inoculum were included in each microtiter plate. Depending on the bacteria type, approximately 10 to 60 CFU per well of bacteria inoculum (100 TCID50), in a volume of 100 μl in 2.8× Mueller-Hinton broth medium, was added to the rows […]. The same volume of broth medium without inoculum was added to column 12 in row A to H. The cultures were incubated at 37° C. for 24 hours under a normal atmosphere (incubator with open air valve and continuous ventilation). At the end of incubation, one day after inoculation, the bacterial growth was quantitated fluorometrically. Therefore resazurin (0.6 mg/ml) was added in a volume of 20 μl to all wells 3 hours after inoculation, and the plates were re-incubated overnight. A change in colour from blue to pink indicated the growth of bacteria. The fluorescence was read in a computer-controlled fluorometer (Cytofluor Biosearch) at an excitation wavelength of 530 nm and an emission wavelength of 590 nm. The % growth inhibition achieved by the compounds was calculated according to standard methods.
# [2] = test system: Streptococcus pneumoniae (ATCC6305); test: In-vitro anti-bacterial microtitre plate assay, IC90, S. pneumoniae; type: cell-based; conditions: 90% inhibitory concentration for bacterial growth, resazurin fluorescence; for IC90 values SPN 1 6305: 24 hours
# Method: as §1
# [3] = test system: Mycobacterium tuberculosis (strain H37RV); test: In-vitro method for testing compounds against M. tuberculosis; type: cell-based; conditions: 90% inhibitory concentration for bacterial growth, 7 days, Middlebrook broth, resazurin fluorescence
# [4] = test system: M. Smegmatis (ATCC607); test: In-vitro anti-bacterial activity against strain M. smegmatis ATCC607; type: cell-based; conditions: 90% inhibitory concentration for bacterial growth, Alamar Blue fluorescence; for IC90: Mycolicibacterium smegmatis, ATCC607, 48 h, read-out: IC90 values MSM 1 ATCC607
# Method: D.2. In-Vitro Method for Testing Compounds for Anti-Bacterial Activity Against Strain M. smegmatis ATCC607. Flat-bottom, sterile 96-well plastic microtiter plates were filled with 180 μl of sterile deionized water, supplemented with 0.25% BSA. Subsequently, stock solutions (7.8× final test concentration) of compounds were added in 45 μl volumes to a series of duplicate wells in column 2 so as to allow evaluation of their effects on bacterial growth. Serial five-fold dilutions (45 μl in 180 μl) were made directly in the microtiter plates from column 2 to 11 using a customised robot system (Zymark Corp., Hopkinton, Mass.). Pipette tips were changed after every 3 dilutions to minimize pipetting errors with high hydrophobic compounds. Untreated control samples with (column 1) and without (column 12) inoculum were included in each microtiter plate. Approximately 250 CFU per well of bacteria inoculum, in a volume of 100 μl in 2.8× Mueller-Hinton broth medium, was added to the rows […]. The same volume of broth medium without inoculum was added to column 12 in row A to H. The cultures were incubated at 37° C. for 48 hours in a humidified 5% CO2 atmosphere (incubator with open air valve and continuous ventilation). At the end of incubation, two days after inoculation, the bacterial growth was quantitated fluorometrically. Therefore Alamar Blue (10×) was added to all wells in a volume of 20 μl and plates were incubated for another 2 hours at […] The fluorescence was read in a computer-controlled fluorometer (Cytofluor, Biosearch) at an excitation wavelength of 530 nm and an emission wavelength of 590 nm (gain 30).
# [5] = test system: Enterococcus faecalis (ATCC29212); test: In-vitro anti-bacterial microtitre plate assay, IC90, E. faecalis; type: cell-based; conditions: 90% inhibitory concentration for bacterial growth, resazurin fluorescence; for IC90 values EFA 29212: 24 hours
# Method: as §1
# [6] = test system: Streptococcus pyogens (ATCC8668); test: In-vitro anti-bacterial microtitre plate assay, IC90, S. pyogens; type: cell-based; conditions: 90% inhibitory concentration for bacterial growth, resazurin fluorescence; for IC90 values SPY 8668: 24 hours
# Method: as §1
# [7] = test system: Pseudomonas aeruginosa (ATCC27853); test: In-vitro anti-bacterial microtitre plate assay, IC90, P. aeruginosa; type: cell-based; conditions: 90% inhibitory concentration for bacterial growth, resazurin fluorescence; for IC90 values PAE 27853: 24 hours
# Method: as §1
# [8] = test system: Escherichia coli (ATCC35218); test: In-vitro anti-bacterial microtitre plate assay, IC90, E. coli; type: cell-based; conditions: 90% inhibitory concentration for bacterial growth, resazurin fluorescence; for IC90: Escherichia coli, ATCC35218, 24 h, read-out: IC90 values ECO 35218
# Method: as §1
Structure (SMILES),IC90 values STA 1 B29213 [1],IC90 values SPN 1 6305 [2],IC90 values MTB 1 H37RV [3],IC90 [4],IC90 values EFA 29212 [5],IC90 values SPY 8668 [6],IC90 values PAE 27853 [7],IC90 [8],melting point,IC90 values MSM 1 ATCC607 ([4]; 48 hours),IC90 values ECO 35218 ([8]; 24 hours),"IC90 ([1]; Staphylococcus aureus, ATCC29213, 24 h, read-out: IC90 values STA 1 B29213)","IC90 ([2]; Streptococcus pneumoniae, ATCC6305, 24 h, read-out: IC90 values SPN 1 6305)","IC90 ([3]; Mycobacterium tuberculosis, H37RV, 168 h, read-out: IC90 values MTB 1 H37RV)","IC90 ([5]; Enterococcus faecalis, ATCC29212, 24 h, read-out: IC90 values EFA 29212)","IC90 ([6]; Streptococcus, ATCC8668, 24 h, read-out: IC90 values SPY 8668)","IC90 ([7]; Pseudomonas aeruginosa, ATCC27853, 24 h, read-out: IC90 values PAE 27853)"
"CO/N=C/c1ccc2nc(OC)c(C(c3ccccc3)C(O)(CCN(C)C)c3cccc4ccccc34)cc2c1 (single isomer, unassigned) [Compound 25]",8.5 µg/mL,2.1 µg/mL,1.7 µg/mL,0.3 µg/mL,8.46 µg/mL,8.46 µg/mL,8.46 µg/mL,53.4 µg/mL,228 °C,–,–,–,–,–,–,–,–
"CO/N=C/c1ccc2nc(OC)c(C(c3ccccc3)C(O)(CCN(C)C)c3cccc4ccccc34)cc2c1 (single isomer, unassigned) [Compound 26]",53.4 µg/mL,18.9 µg/mL,8.5 µg/mL,–,53.37 µg/mL,53.37 µg/mL,53.37 µg/mL,–,170 °C,0.3 µg/mL,53.37 µg/mL,–,–,–,–,–,–
"COc1nc2ccc(N3CCOCC3)cc2cc1C(c1ccccc1)C(O)(CCN(C)C)c1cccc2ccccc12 (single isomer, unassigned) [Compound 30]",–,–,–,0.1 µg/mL,–,–,–,56.2 µg/mL,210 °C,–,–,44.6 µg/mL,14.1 µg/mL,8.9 µg/mL,44.6 µg/mL,44.6 µg/mL,22.4 µg/mL
